Test results as given in US20230131899A1, “INHIBITORS OF MICROBIALLY INDUCED AMYLOID” (Axial Therapeutics, Inc., priority 2020, published 2023).
Where two headings read alike, the source gives them in different places.

Test system: CsgA gene expression (csgBAC promoter-GFP reporter) in E. coli UTI89
Assay: In vitro live cell fluorescent reporter assay of CsgA transcription (Reporter Assay)
Format: cell-based
Conditions: Escherichia coli
Outline: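 Chromosomal single-copy csgBAC promoter–GFP reporter in E. coli UTI89, started at OD600 0.003 in YESCA broth with compound (0.14–100 μM, 1% DMSO), 20 h at 27 °C. GFP (ex 485/em 525 nm) background-subtracted and normalized to vehicle; IC50 and X[50] from curve fits. OD600 tracked growth effects.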

[1] = read-out: Reporter Assay Abs IC50 (μM), median Abs IC50 in the CsgA reporter assay, N/A = maximum expression reduction is <50% of control
[2] = read-out: Reporter Assay Abs IC50, activity range, class symbol
[3] = read-out: Reporter Assay Abs IC50 (activity range), median Abs IC50 in the CsgA reporter assay, class symbol

Compound | IC50 [1] | IC50 [2] | IC50 [3]
O=C(O)[C@H]1CN(Cc2ccccc2)c2c(-c3cccc(C(F)(F)F)c3)c(Cc3cccc4ccccc34)c(Cl)c(=O)n21 (single isomer, unassigned) [Compound 004b] | 0.5 µM | < 1.3 µM | 
CC1(C)Sc2c(-c3cccc(C(F)(F)F)c3)c(Cc3cccc4ccccc34)nc(=O)n2C1C(=O)O (stereo not drawn) [Compound 059, 2,2-dimethyl-7-(naphthalen-1-ylmethyl)-5-oxo-8-(3-(trifluoromethyl)phenyl)-2,3-dihydro-5H-thiazolo[3,2-c]pyrimidine-3-carboxylic acid] | 21.1 µM |  | > 10 µM
Cn1c(=O)c2c(nc(CCCCCCCN3CC(C(=O)O)n4c(c(-c5cccc(C(F)(F)F)c5)c(Cc5cccc6ccccc56)cc4=O)S3(=O)=O)n2C)n(C)c1=O (stereo not drawn) [Compound 047, 8-(naphthalen-1-ylmethyl)-6-oxo-9-(3-(trifluoromethyl)phenyl)-2-(7-(1,3,7-trimethyl-2,6-dioxo-2,3,6,7-tetrahydro-1H-purin-8-yl)heptyl)-3,4-dihydro-2H,6H-pyrido[1,2-e][1,2,5]thiadiazine-4-carboxylic acid 1,1-dioxide] | 0.9 µM |  | < 1.3 µM
O=C(O)C1CN(Cc2ccccc2)c2c(-c3cccc(C(F)(F)F)c3)c(Cc3cccc4ccccc34)c(F)c(=O)n21 (stereo not drawn) [Compound 194, 1-benzyl-6-fluoro-7-(naphthalen-1-ylmethyl)-5-oxo-8-(3-(trifluoromethyl)phenyl)-1,2,3,5-tetrahydroimidazo[1,2-a]pyridine-3-carboxylic acid] | 1.4 µM | 1.3 to 4.5 µM | 
Cn1c(=O)c2c(ncn2CCCCCCCN2CC(C(=O)O)n3c(c(-c4cccc(C(F)(F)F)c4)c(Cc4cccc5ccccc45)cc3=O)S2(=O)=O)n(C)c1=O (stereo not drawn) [Compound 036] | 1.6 µM |  | 1.3 to 4.5 µM
O=C(O)C1CSc2c(-c3cccc(C(F)(F)F)c3)c(Cc3cccc4ccccc34)c(CO)c(=O)n21 (stereo not drawn) [Compound 057, 6-(hydroxymethyl)-7-(naphthalen-1-ylmethyl)-5-oxo-8-(3-(trifluoromethyl)phenyl)-2,3-dihydro-5H-thiazolo[3,2-a]pyridine-3-carboxylic acid] | 7.1 µM |  | 4.6 to 10 µM
O=C(O)c1c(-c2ccccc2)sc2c(-c3cccc(C(F)(F)F)c3)c(Cc3cccc4ccccc34)cc(=O)n12 [Compound 051, 7-(naphthalen-1-ylmethyl)-5-oxo-2-phenyl-8-(3-(trifluoromethyl)phenyl)-5H-thiazolo[3,2-a]pyridine-3-carboxylic acid] | 1 µM |  | < 1.3 µM
O=C(O)C1CN(Cc2ccccc2)c2c(-c3cccc(C(F)(F)F)c3)c(C(F)(F)c3cccc4ccccc34)c(Br)c(=O)n21 (stereo not drawn) [Compound 155, 1-benzyl-6-bromo-7-(difluoro(naphthalen-1-yl)methyl)-5-oxo-8-(3-(trifluoromethyl)phenyl)-1,2,3,5-tetrahydroimidazo[1,2-a]pyridine-3-carboxylic acid] | 3 µM | 1.3 to 4.5 µM | 
Cn1c(=O)c2c(nc(CCCCCCN3CC(C(=O)O)n4c(c(-c5cccc(C(F)(F)F)c5)c(Cc5cccc6ccccc56)cc4=O)S3(=O)=O)n2C)n(C)c1=O (stereo not drawn) [Compound 046, 8-(naphthalen-1-ylmethyl)-6-oxo-9-(3-(trifluoromethyl)phenyl)-2-(6-(1,3,7-trimethyl-2,6-dioxo-2,3,6,7-tetrahydro-1H-purin-8-yl)hexyl)-3,4-dihydro-2H,6H-pyrido[1,2-e][1,2,5]thiadiazine-4-carboxylic acid 1,1-dioxide] | 1.6 µM |  | 1.3 to 4.5 µM
